# From patent publication US12521335B2, “Cosmetic compositions containing vitamin C compounds and uses thereof” (RoC OPCO LLC, priority 2021, dated 2026)
# Experiment: DPPH antioxidant assay
# Format: biochemical
# Conditions: for DPPH antioxidant activity percent, Avg ± SEM: from 0.1% v/v stock
# Description: The purpose of this study was to evaluate the overall antioxidant capacity of the serum formula of Example 1B and gel-cream formula of Example 1C for their ability to reduce the free radical 2,2-Diphenyl-1-picrylhydrazyl ([…] and Singh (2011). Genesis and development of DPPH method of antioxidant assay. (See J. Food Sci Technol. 2011 August; 48(4): 412-422.) Ascorbic Acid (Vitamin C) was used as positive antioxidant control in the assay. The testing involved the suppression of optical density (OD) at 530 nm to a degree, which is proportional to an effective antioxidant activity. Test and control agents were stored at recommended storage temperature until use. An initial 0.1, 1 or 10% v/v dilution was prepared for each test formula in ultra-pure grade water or […]® 355. Serial 2-fold dilutions were prepared for each material and mixed with DPPH in ethanol solution. All samples were compared to diluent-only treated samples used as negative antioxidant activity. Optical density changes at 530 nm were evaluated 10 minutes after addition of DPPH to each sample. Average absorbance was calculated and plotted for each sample concentration. Effective antioxidant inhibition activity based on the change of absorbance of blank (diluent-only) sample (no material added). […] The DPPH antioxidant assay method was performed to measure antioxidant capacity of test materials. The free radical, 2,2-Diphenyl-1-picrylhydrazyl (DPPH) was obtained from Cayman Chemical Co. (Cat. No. 14805) and a 0.2 mM (0.0788 mg/mL) solution was prepared with 200-proof ethanol (Acros Organics, Cat No. 61509-0020). The assay consisted in the evaluation of the overall antioxidant capacity of test materials ([…] and Singh, 2011) for the ability to reduce DPPH (purple color), a stable free radical to DPPHH (Diphenylpicrylhydrazine; light yellow color). The testing involved the suppression of optical density (OD) at 517-530 nm to a degree which is proportional to an effective antioxidant activity. The antioxidant capacity of each material was compared to ascorbic acid (vitamin C) used as standard control. An initial 0.1, 1 or 10% v/v dilution was prepared for each test formula in ultra-pure grade water or […]® 355. Two-fold serial dilutions were made from the stock solution samples. Negative control wells only diluent was added. The vehicle/diluent used was ultra-pure grade water (Cayman Chemical, Co.; Cat No. 400000) or […] Corp.; Lot No. 170310UT14). Diluents were stored at room temperature and handled by the research scientist. To prepare the serum stock formulation (0.1, 1, 10% v/v), 1:10, 1:100 or 1:1000 dilutions were prepared using a positive displacement pipette. To prepare the 20% Ascorbic Acid and 0.05% stock formulation, a 1-dram glass screw-top vial container was pre-weighed and material added to the container followed by addition of neat vehicle to make a 200 mg/mL or […] solution, respectively. Two-fold serial dilutions were made from the stock solution samples. […] Vials were sealed and formulations were immediately used for antioxidant assays.
# [1] = DPPH antioxidant activity near 100%
smiles,measurement,setting,value
"O=C1O[C@H]([C@@H](O)CO)C(O)=C1O [20% Ascorbic Acid, Ascorbic Acid]","DPPH antioxidant activity percent, Avg ± SEM",0.001 % v/v,38 ± 8%
same,"DPPH antioxidant activity percent, Avg ± SEM",0.002 % v/v,31 ± 11%
same,"DPPH antioxidant activity percent, Avg ± SEM",0.003 % v/v,50 ± 13%
same,"DPPH antioxidant activity percent, Avg ± SEM",0.006 % v/v,91 ± 4%
same,"DPPH antioxidant activity percent, Avg ± SEM",0.013 % v/v,100 ± 0%
same,"DPPH antioxidant activity percent, Avg ± SEM",0.025 % v/v,100 ± 0%
same,"DPPH antioxidant activity percent, Avg ± SEM",0.050 % v/v,100 ± 0%
same,Maximum effective Antioxidant Activity: Concentration (% v/v),[1],0.0125 % v/v
same,Maximum effective Antioxidant Activity: Dilution Factor,[1],"8,000"
